Experimental data taken from publication PMC9150124, “Design of a Potent, Selective, and Brain-Penetrant Inhibitor of Wnt-Deactivating Enzyme Notum by Optimization of a Crystallographic Fragment Hit” (Journal of Medicinal Chemistry, 2022).

Tests used:
Experiment in all cases: SelectScreen kinase profiling, SSBK LanthaScreen Binding SP Technology
[1] = target: kinase named in conditions (Homo sapiens, UniProt Q86UE8); settings: TLK2, 10 μM
[2] = target: kinase named in conditions (Homo sapiens, UniProt Q9UEE5); settings: STK17A (DRAK1), 10 μM
[3] = target: kinase named in conditions (Homo sapiens, UniProt O00238); settings: BMPR1B (ALK6), 10 μM
[4] = target: kinase named in conditions (Homo sapiens, UniProt P10721, Y823D); settings: KIT Y823D, 10 μM
[5] = target: kinase named in conditions (Homo sapiens, UniProt P33981); settings: TTK, 10 μM
[6] = target: kinase named in conditions (Homo sapiens, UniProt Q16832, N456S); settings: DDR2 N456S, 10 μM
[7] = target: kinase named in conditions (Homo sapiens, UniProt Q9Y572); settings: RIPK3, 10 μM
[8] = target: kinase named in conditions (Homo sapiens, UniProt P22612); settings: PRKACG (PRKAC gamma), 10 μM
[9] = target: kinase named in conditions (Homo sapiens, UniProt Q00526); settings: CDK3/cyclin E1, 10 μM
[10] = target: kinase named in conditions (Homo sapiens, UniProt Q7L7X3); settings: TAOK1, 10 μM
[11] = target: kinase named in conditions (Homo sapiens, UniProt Q9BYP7); settings: WNK3, 10 μM
[12] = target: kinase named in conditions (Homo sapiens, UniProt P11362, V561M); settings: FGFR1 V561M, 10 μM
[13] = target: kinase named in conditions (Homo sapiens, UniProt Q02763, Y1108F); settings: TEK (TIE2) Y1108F, 10 μM
[14] = target: kinase named in conditions (Homo sapiens, UniProt Q07912); settings: TNK2 (ACK), 10 μM
[15] = target: kinase named in conditions (Homo sapiens, UniProt Q96GX5); settings: MASTL, 10 μM
[16] = target: kinase named in conditions (Homo sapiens, UniProt P30291); settings: WEE1, 10 μM
[17] = target: kinase named in conditions (Homo sapiens, UniProt P37173); settings: TGFBR2, 10 μM
[18] = target: kinase named in conditions (Homo sapiens, UniProt Q99683); settings: MAP3K5 (ASK1), 10 μM
[19] = target: kinase named in conditions (Homo sapiens, UniProt P10721, D820E); settings: KIT D820E, 10 μM
[20] = target: kinase named in conditions (Homo sapiens, UniProt Q9NYL2); settings: ZAK, 10 μM
[21] = target: kinase named in conditions (Homo sapiens, UniProt Q15746); settings: MYLK (MLCK), 10 μM
[22] = target: kinase named in conditions (Homo sapiens, UniProt Q9H093); settings: NUAK2, 10 μM
[23] = target: kinase named in conditions (Homo sapiens, UniProt Q8WXR4); settings: MYO3B (MYO3 beta), 10 μM
[24] = target: kinase named in conditions (Homo sapiens, UniProt Q9UM73, F1174L); settings: ALK F1174L, 10 μM
[25] = target: kinase named in conditions (Homo sapiens, UniProt Q00535); settings: CDK5 (Inactive), 10 μM
[26] = target: kinase named in conditions (Homo sapiens, UniProt P08581, D1228H); settings: MET D1228H, 10 μM
[27] = target: kinase named in conditions (Homo sapiens, UniProt Q13873); settings: BMPR2, 10 μM
[28] = target: kinase named in conditions (Homo sapiens, UniProt Q04771); settings: ACVR1 (ALK2), 10 μM
[29] = target: kinase named in conditions (Homo sapiens, UniProt Q9H4A3); settings: WNK1, 10 μM
[30] = target: kinase named in conditions (Homo sapiens, UniProt Q15375); settings: EPHA7, 10 μM
[31] = target: kinase named in conditions (Homo sapiens, UniProt P00519, Q252H); settings: ABL1 Q252H, 10 μM
[32] = target: kinase named in conditions (Homo sapiens, UniProt P07949, M918T); settings: RET M918T, 10 μM
[33] = target: kinase named in conditions (Homo sapiens, UniProt P24941)
[34] = target: kinase named in conditions (Homo sapiens, UniProt Q15835); settings: GRK1, 10 μM

Compound: FC(F)(F)c1c(Cl)ccc(-n2ccnn2)c1Cl [8l, 1-(2,4-Dichloro-3-(trifluoromethyl)phenyl)-1H-1,2,3-triazole]
- inhibition at 10 µM [1]: 11%
- inhibition at 10 µM [2]: 13%
- inhibition at 10 µM [3]: 0%
- inhibition at 10 µM [4]: 6%
- inhibition at 10 µM [5]: 5%
- inhibition at 10 µM [6]: 26%
- inhibition at 10 µM [7]: 10%
- inhibition at 10 µM [8]: 6%
- inhibition at 10 µM [9]: 4%
- inhibition at 10 µM [10]: 0%
- inhibition at 10 µM [11]: -10%
- inhibition at 10 µM [12]: 4%
- inhibition at 10 µM [13]: -9%
- inhibition at 10 µM [14]: 3%
- inhibition at 10 µM [15]: -8%
- inhibition at 10 µM [16]: 9%
- inhibition at 10 µM [17]: 7%
- inhibition at 10 µM [18]: 17%
- inhibition at 10 µM [19]: -4%
- inhibition at 10 µM [20]: 3%
- inhibition at 10 µM [21]: 3%
- inhibition at 10 µM [22]: 7%
- inhibition at 10 µM [23]: 4%
- inhibition at 10 µM [24]: 1%
- inhibition at 10 µM [25]: 1%
- inhibition at 10 µM [26]: -13%
- inhibition at 10 µM [27]: 13%
- inhibition at 10 µM [28]: 12%
- inhibition at 10 µM [29]: 2%
- inhibition at 10 µM [30]: 0%
- inhibition at 10 µM [31]: 10%
- inhibition at 10 µM [32]: 9%
- inhibition at 10 µM ([33]; CDK2/cyclin A1, 10 μM): 3%
- inhibition at 10 µM ([33]; CDK2/cyclin E1, 10 μM): -4%
- inhibition at 10 µM ([33]; CDK2/cyclin O, 10 μM): 7%
- inhibition at 10 µM [34]: 3%
